# Patent publication US11319376B2, “Combination of glucagon receptor antagonists and PI3K pathway inhibitors for the treatment of cancer” (REMD Biotherapeutics, Inc., priority 2016, dated 2022)
# Assays:
# [1] = system: C57BL/6 mice; test: Effect of REMD2.59c pretreatment on induction of hyperglycemia by PI3K/Akt pathway inhibitors in C57BL/6 fed mice; format: in vivo, mouse; settings: fed blood glucose, −24 h pretreatment ASN vehicle or REMD2.59c 7 mg/kg i.p., mean ± sd, n=3; for 2 h Glucose: 2 h after single p.o. dose (BYL719 50, BKM120 50, GDC-0980 10, MK2206 150, GSK690693 30, GDC-0068 10 or 100, OSI-906 100 mg/kg); for 4 h Glucose: 4 h after single p.o. dose (same doses as 2 h)
# [2] = system: BALB/c athymic nude mice; test: Glucose and insulin response to MK2206 with/without REMD2.59c pretreatment in BALB/c athymic nude mice (MiaPaCa2 tumor bearing or naive); format: in vivo, mouse; settings: for −0.5 h Glucose: 0.5 h before MK2206 dosing
# [3] = system: cancer patient of diverse malignancies; settings: cancer patients; cited from earlier work
# [4] = system: CD-17 scid mice; settings: cited from earlier work; for effect on GSK690693-induced hyperglycemia: CD-17 scid mice
# [5] = biological target: VPS34 (Homo sapiens, UniProt Q8NEB9); settings: read-out: Target Selectivity (IC50) VPS34; cited from earlier work
# [6] = biological target: PI4Kβ (Homo sapiens, UniProt Q9UBF8); settings: read-out: Target Selectivity (IC50) PI4Kβ; cited from earlier work
# [7] = biological target: mTOR (Homo sapiens, UniProt P42345); settings: read-out: Target Selectivity (IC50) mTOR; cited from earlier work
# [8] = biological target: ATR (Homo sapiens, UniProt Q13535); settings: read-out: Target Selectivity (IC50) ATR; cited from earlier work
# [9] = biological target: DNAPK (Homo sapiens, UniProt P78527); settings: read-out: Target Selectivity (IC50) DNAPK; cited from earlier work
# [10] = system: patients with type 1 diabetes; settings: single dose 70 mg subcutaneous; cited from earlier work
# [11] = biological target: CSF1R (Homo sapiens, UniProt P07333); settings: read-out: Target Selectivity (IC50) CSF1R; cited from earlier work
# [12] = biological target: p70S6K (Homo sapiens, UniProt P23443); settings: read-out: Target Selectivity (IC50) p70S6K; cited from earlier work
# Sequence of ATR (Q13535 whole entry): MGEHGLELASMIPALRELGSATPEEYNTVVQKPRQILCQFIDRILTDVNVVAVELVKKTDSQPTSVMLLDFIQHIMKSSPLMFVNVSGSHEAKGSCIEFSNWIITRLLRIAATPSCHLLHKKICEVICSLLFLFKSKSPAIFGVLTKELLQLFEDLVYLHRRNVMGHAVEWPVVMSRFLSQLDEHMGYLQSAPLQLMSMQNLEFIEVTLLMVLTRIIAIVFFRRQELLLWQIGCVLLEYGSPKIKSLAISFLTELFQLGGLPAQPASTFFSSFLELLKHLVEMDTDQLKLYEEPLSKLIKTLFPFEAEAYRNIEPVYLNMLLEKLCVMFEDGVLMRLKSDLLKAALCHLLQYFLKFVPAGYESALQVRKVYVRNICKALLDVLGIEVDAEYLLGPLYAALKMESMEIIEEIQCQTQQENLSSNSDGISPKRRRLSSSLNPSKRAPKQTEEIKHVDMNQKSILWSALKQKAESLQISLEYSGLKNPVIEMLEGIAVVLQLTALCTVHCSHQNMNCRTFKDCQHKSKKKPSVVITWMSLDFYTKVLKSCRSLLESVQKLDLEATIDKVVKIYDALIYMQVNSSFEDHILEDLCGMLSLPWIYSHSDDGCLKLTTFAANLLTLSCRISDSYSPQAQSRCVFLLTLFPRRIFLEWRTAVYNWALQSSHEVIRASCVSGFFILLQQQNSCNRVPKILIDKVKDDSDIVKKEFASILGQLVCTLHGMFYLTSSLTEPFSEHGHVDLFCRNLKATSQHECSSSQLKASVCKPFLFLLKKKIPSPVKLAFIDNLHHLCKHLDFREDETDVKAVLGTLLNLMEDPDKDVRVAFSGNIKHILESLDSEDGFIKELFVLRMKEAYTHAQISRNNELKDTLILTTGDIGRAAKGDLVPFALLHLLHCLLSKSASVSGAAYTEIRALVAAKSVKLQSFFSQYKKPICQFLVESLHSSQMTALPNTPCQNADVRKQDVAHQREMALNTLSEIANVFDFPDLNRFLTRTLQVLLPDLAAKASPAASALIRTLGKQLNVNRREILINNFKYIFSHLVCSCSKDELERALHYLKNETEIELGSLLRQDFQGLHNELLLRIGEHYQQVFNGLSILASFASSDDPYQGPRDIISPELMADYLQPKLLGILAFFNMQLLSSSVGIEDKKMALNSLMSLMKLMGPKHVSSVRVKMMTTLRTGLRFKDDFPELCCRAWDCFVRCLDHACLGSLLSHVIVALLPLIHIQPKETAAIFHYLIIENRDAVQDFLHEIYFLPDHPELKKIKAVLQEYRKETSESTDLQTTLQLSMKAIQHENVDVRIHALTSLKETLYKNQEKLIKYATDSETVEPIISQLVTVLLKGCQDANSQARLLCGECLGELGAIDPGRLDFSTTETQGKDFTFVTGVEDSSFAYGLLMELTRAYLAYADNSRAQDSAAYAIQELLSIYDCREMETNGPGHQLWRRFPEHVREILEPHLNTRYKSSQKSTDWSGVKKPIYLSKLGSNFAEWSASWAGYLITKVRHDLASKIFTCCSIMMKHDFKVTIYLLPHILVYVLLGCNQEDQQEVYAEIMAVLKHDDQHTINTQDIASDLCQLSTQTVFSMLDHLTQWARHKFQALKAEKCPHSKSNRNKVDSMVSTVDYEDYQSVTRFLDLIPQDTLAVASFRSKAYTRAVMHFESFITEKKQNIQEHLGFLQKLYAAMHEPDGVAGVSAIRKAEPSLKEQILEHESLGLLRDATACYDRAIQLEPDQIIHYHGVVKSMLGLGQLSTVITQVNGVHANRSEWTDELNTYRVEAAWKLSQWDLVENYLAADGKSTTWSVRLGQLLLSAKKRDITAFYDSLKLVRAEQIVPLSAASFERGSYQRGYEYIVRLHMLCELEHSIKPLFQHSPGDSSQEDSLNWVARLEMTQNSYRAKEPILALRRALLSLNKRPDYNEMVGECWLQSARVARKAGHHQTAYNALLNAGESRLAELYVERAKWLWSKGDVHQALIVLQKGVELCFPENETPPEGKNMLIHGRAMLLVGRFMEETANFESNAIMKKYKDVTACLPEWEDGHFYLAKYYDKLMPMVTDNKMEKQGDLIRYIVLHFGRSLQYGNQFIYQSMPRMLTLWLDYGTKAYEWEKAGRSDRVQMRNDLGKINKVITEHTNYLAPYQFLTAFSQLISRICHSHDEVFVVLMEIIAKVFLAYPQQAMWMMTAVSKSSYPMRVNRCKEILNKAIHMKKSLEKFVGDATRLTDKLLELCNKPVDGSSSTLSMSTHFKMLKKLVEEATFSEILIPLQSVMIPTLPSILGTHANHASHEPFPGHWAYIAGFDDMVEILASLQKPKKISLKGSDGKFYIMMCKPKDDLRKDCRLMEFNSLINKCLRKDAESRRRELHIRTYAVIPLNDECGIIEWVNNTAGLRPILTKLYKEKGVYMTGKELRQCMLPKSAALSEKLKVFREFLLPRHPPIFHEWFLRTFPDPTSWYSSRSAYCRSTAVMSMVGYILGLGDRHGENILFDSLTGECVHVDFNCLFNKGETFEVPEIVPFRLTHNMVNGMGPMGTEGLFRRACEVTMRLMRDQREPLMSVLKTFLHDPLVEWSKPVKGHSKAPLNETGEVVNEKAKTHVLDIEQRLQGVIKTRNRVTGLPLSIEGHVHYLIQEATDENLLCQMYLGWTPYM
# Sequence of ATR (Q8WXE1 whole entry partner): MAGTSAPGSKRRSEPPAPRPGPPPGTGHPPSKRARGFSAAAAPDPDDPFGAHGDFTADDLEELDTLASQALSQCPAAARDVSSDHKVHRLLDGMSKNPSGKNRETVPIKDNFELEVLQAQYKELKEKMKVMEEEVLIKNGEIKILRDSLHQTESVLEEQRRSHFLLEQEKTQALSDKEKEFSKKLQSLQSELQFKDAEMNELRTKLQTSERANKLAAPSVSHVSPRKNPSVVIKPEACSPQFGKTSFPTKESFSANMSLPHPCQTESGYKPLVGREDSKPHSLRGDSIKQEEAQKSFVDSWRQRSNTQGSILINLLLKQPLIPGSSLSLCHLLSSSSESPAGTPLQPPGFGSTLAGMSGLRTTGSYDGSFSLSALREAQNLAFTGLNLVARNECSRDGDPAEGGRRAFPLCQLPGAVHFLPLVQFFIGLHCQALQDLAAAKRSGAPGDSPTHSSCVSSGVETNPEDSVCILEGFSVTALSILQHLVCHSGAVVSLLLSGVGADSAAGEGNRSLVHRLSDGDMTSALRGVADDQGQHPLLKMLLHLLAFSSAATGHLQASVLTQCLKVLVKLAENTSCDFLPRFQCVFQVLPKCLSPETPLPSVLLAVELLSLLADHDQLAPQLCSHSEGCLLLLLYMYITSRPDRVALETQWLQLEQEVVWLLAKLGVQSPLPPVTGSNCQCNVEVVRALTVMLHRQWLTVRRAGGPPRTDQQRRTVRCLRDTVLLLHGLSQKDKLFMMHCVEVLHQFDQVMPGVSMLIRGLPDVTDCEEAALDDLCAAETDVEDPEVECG
# Sequence of PI4Kβ (Q9UBF8 whole entry, species assumed): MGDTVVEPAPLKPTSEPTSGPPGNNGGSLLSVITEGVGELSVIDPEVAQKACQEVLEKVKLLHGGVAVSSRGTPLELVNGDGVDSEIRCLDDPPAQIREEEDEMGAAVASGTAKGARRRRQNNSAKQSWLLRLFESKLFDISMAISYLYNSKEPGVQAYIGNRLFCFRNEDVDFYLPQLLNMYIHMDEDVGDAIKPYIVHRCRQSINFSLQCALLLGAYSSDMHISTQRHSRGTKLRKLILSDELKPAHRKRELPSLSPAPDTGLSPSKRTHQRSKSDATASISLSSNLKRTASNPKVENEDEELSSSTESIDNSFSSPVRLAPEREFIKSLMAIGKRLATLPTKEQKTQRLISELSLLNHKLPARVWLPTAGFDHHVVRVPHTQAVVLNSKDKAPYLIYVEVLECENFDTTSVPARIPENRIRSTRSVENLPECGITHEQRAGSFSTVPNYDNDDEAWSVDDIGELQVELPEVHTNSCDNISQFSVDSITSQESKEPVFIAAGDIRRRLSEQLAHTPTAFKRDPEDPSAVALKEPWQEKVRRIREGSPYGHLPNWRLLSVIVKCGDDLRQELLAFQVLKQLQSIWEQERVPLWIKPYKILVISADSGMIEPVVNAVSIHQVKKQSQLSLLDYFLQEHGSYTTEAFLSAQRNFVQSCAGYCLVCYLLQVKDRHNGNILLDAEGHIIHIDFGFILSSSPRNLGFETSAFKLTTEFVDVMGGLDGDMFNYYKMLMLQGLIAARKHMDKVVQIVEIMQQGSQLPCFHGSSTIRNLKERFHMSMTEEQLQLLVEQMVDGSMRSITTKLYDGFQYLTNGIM
# Sequence of VPS34 (Q8NEB9 whole entry): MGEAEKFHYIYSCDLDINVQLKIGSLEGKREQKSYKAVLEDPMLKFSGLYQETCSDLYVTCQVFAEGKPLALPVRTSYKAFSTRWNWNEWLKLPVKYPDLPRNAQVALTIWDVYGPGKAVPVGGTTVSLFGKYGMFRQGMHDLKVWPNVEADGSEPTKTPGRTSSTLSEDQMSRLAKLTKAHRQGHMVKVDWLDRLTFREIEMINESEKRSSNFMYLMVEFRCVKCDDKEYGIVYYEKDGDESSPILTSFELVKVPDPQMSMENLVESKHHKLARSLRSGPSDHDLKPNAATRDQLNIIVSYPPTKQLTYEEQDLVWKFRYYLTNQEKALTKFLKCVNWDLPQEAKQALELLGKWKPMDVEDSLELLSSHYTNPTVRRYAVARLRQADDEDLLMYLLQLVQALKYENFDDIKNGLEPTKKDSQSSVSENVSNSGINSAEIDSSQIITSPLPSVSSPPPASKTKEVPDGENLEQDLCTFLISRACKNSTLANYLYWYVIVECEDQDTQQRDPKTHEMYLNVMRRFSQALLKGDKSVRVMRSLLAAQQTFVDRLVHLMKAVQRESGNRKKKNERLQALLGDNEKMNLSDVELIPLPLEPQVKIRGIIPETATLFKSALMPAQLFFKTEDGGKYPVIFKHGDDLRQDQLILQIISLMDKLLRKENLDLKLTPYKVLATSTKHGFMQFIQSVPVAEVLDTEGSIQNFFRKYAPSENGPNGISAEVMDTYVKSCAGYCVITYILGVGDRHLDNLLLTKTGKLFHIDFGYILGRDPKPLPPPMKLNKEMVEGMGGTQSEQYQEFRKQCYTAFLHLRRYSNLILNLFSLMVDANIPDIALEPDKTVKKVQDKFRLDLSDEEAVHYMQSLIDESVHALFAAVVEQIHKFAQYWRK
molecule,measurement,setting,value
NC1(c2ccc(-c3nc4ccn5c(=O)[nH]nc5c4cc3-c3ccccc3)cc2)CCC1 [MK2206],2 h Glucose,[1],20.1 ± 0.8 mM
same,4 h Glucose,[1],9.6 ± 1.3 mM
same,glucose levels after 2 h treatment,"[2]; BALB/c nude mice, MK2206 150 mg/kg p.o.",not increased
same,increase in serum insulin after 2 h treatment,"[2]; BALB/c nude tumor bearing mice, MK2206 150 mg/kg p.o., statistically significant",65.5 fold
same,4 h Insulin,"[2]; Table 4 (glucose table), MiaPaCa2 tumor bearing BALB/c nude mice, 4 h after MK2206 150 mg/kg p.o.",4.9 ± 0.8 ng/mL
same,4 h Insulin,"[2]; Table 4 (glucose table), naive (tumor-free) BALB/c nude mice, 4 h after MK2206 150 mg/kg",5.7 ± 1.0 ng/mL
same,−0.5 h Glucose,"[2]; Table 4, MiaPaCa2 tumor bearing BALB/c nude mice, 24 h after ASN or REMD2.59c, mean ± sd, n=3",5.6 ± 0.8 mM
same,2 h Glucose,"[2]; Table 4, MiaPaCa2 tumor bearing BALB/c nude mice, 2 h after MK2206 150 mg/kg p.o.",5.5 ± 1.0 mM
same,−0.5 h Glucose,"[2]; Table 4, naive (tumor-free) BALB/c nude mice, no pretreatment",5.7 ± 0.9 mM
same,2 h Glucose,"[2]; Table 4, naive (tumor-free) BALB/c nude mice, 2 h after MK2206 150 mg/kg",5.8 ± 0.5 mM
same,2 h Glucose,"[2]; Table 5 (insulin table), MiaPaCa2 tumor bearing BALB/c nude mice, 2 h after MK2206 150 mg/kg p.o.",26.2 ± 19.4 mM
same,4 h Insulin,"[2]; Table 5, MiaPaCa2 tumor bearing BALB/c nude mice, 4 h after MK2206 150 mg/kg p.o.",7.1 ± 2.1 ng/mL
same,efficacy in Phase I/II clinical trials,[3],minimal
same,hyperglycemia and hyperinsulinemia in Phase I/II clinical trials,[3],consistently observed
N#C[C@@H]1CCCN1C(=O)CNC12CC3CC(CC(O)(C3)C1)C2 [vildagliptin],effect on GSK690693-induced hyperglycemia,[4],not prevented or reduce
"Cc1nc(NC(=O)N2CCC[C@H]2C(N)=O)sc1-c1ccnc(C(C)(C)C(F)(F)F)c1 [BYL719, alpelisib]",2 h Glucose,[1],17.4 ± 1.4 mM
same,4 h Glucose,[1],11.9 ± 3.3 mM
same,IC50,[5],9.1 µM
same,IC50,[6],581 nM
same,IC50,[7],9.1 µM
same,IC50,[8],15 µM
same,efficacy in Phase I/II clinical trials,[3],minimal
same,hyperglycemia and hyperinsulinemia in Phase I/II clinical trials,[3],consistently observed
same,IC50,[9],9.1 µM
"REMD-477: fully human anti-GCGR monoclonal antibody, heavy chain SEQ ID NO: 49 and light chain SEQ ID NO: 50",amount of insulin needed,[10],substantially reduce
same,glucose levels,[10],improve
same,hypoglycemia (low blood glucose levels),[10],without increasing
"C[C@]1(O)C[C@@H](c2nc(-c3ccc4ccc(-c5ccccc5)nc4c3)c3c(N)nccn32)C1 [OSI-906, linsitinib]",2 h Glucose,[1],29.3 ± 1.7 mM
same,4 h Glucose,[1],23.4 ± 1.5 mM
CCn1c(-c2nonc2N)nc2c(C#CC(C)(C)O)ncc(OC[C@H]3CCCNC3)c21 [GSK690693],2 h Glucose,[1],27.1 ± 2.6 mM
same,4 h Glucose,[1],21.2 ± 1.5 mM
same,induction of hyperglycemia,"[4]; mouse, in vivo",potently induces
Exendin-4,effect on GSK690693-induced hyperglycemia,[4],not prevented or reduce
"Nc1cc(C(F)(F)F)c(-c2cc(N3CCOCC3)nc(N3CCOCC3)n2)cn1 [BKM120, buparlisib]",2 h Glucose,[1],15.7 ± 2.5 mM
same,4 h Glucose,[1],9.1 ± 1.3 mM
same,IC50,[8],8.09 µM
same,IC50,[11],582 nM
same,efficacy in Phase I/II clinical trials,[3],minimal
same,hyperglycemia and hyperinsulinemia in Phase I/II clinical trials,[3],consistently observed
"Cc1c(CN2CCN(C(=O)[C@H](C)O)CC2)sc2c(N3CCOCC3)nc(-c3cnc(N)nc3)nc12 [GDC-0980, apitolisib]",2 h Glucose,[1],27.0 ± 1.8 mM
same,4 h Glucose,[1],20.5 ± 0.9 mM
CN(C)C(=N)N=C(N)N [metformin],effect on GSK690693-induced hyperglycemia,[4],not prevented or reduce
"CC(C)NC[C@@H](C(=O)N1CCN(c2ncnc3c2[C@H](C)C[C@H]3O)CC1)c1ccc(Cl)cc1 [GDC-0068, ipatasertib]",2 h Glucose,[1],28.4 ± 2.0 mM
same,4 h Glucose,[1],25.9 ± 1.2 mM
same,IC50,[12],862 nM
